We go through eleven compounds from US11370743B2, “Prodrug derivatives of protein kinase C modulators” (priority 2017, dated 2022).

Read-outs that look alike come from different tables or passages of the source.

The term Ki denotes the equilibrium dissociation constant of an inhibitor or competing ligand from its target. The term Kd denotes the constant that tells how readily two partners part at equilibrium.

Data set [1] relates to C57/bl6 mice. Nature of the data set: In vivo C57/bl6 Mouse CD69 Stimulation Assay. The following applies: for CD69 expression versus parent compound: 60 μg dose; for stimulation of CD69 in splenocytes: 24 h post-injection; for bolus toxicity: highest dosage. Here is the method:
In vivo C57/bl6 Mouse CD69 Stimulation Assay: C57/bl6 mice were obtained from the UCLA Department of Radiation Oncology. Prodrugs of the disclosure were administered intravenously via retro-orbital injection. At 24 h post-injection, mice were sacrificed and the spleens isolated. Spleens were disaggregated by forcing tissue through a steel mesh and then filtered through a 40 μm filter to produce a single-cell suspension. These cells were then stained for flow cytometry to analyze surface expression of relevant markers. Cells were first suspended in 50 μL of a 1:1 mix of 1× PBS and human AB serum (Sigma) and then stained with a combination of anti-mouse CD3-fluorescein isothiocyanate (eBioscience), CD69-phycoerythrin (eBioscience), and CD4-peridinin chlorophyll protein (eBioscience). Following antibody addition, the mixture was incubated at 4° C. for 15 min. The cells were then washed, resuspended in 1× PBS containing 2% paraformaldehyde, and stored at 4° C. Fixed cells were analyzed using an LSRFortessa (BD Biosciences). The resultant list mode files were processed using FlowJo software (version 7.6).

A short description of data set [2]: Hydrolytic Stability Assay. The class given is physicochemical. As to conditions: buffer, HEPES buffered saline, pH 7.4, 10% DMSO, 37° C.; for half-life at 400 μM: read-out: Hydrolytic stability (t1/2); for half-life: read-out: Hydrolytic stability (t1/2) (converted). The procedure:
(§1) Hydrolytic Stability Assay: A solution of 400 μM of parent compound or prodrug derivative with 2,4,6-trimethylphenol (800 μM, 107 μg) in HEPES buffered saline, pH 7.4, with 10% DMSO (total volume 1000 μL) was incubated at 37° C. At appropriate time points, 100 μL was removed, flash frozen, and lyophilized. The lyophilized material was then diluted with 100 μL acetonitrile, filtered, and analyzed by analytical HPLC. The degree of degradation was calculated relative to the area under the curve of the compound of interest compared to the internal standard, 2,4,6-trimethylphenol, as shown in Table 1. Porcine Liver Esterase Assay: A solution of 400 μM of parent compound or prodrug derivative with 2,4,6-trimethylphenol (800 μM, 160 μg) and 60 units of porcine liver esterase in HEPES buffered saline, pH 7.4, with 10% DMSO (total volume 1500 μL) was incubated at 37° C. At appropriate time points, 150 μL was removed, flash frozen, and centrifuged at 10,000 rpm. 140 μL of the supernatant was removed and lyophilized. The lyophilized material was then diluted with 100 μL acetonitrile, filtered, and analyzed by analytical HPLC. The degree of esterase cleavage was calculated relative to the area under the curve of the compound of interest compared to the internal standard, 2,4,6-trimethylphenol.

Data set [3] concerns porcine liver esterase. Put plainly: Porcine Liver Esterase Assay. The data set is classed as in vitro ADME. As to conditions: pig; 60 units of porcine liver esterase, HEPES buffered saline, pH 7.4, 10% DMSO, 37° C.; read-out: Esterase stability (t1/2)* (converted). The procedure: as §1
Data set [4] concerns the target T1, Novel PKCδ (Homo sapiens, UniProt Q05655).
T1 construct: a specific full-length PKC isoform was combined with Tris-HCl, KCl, CaCl2
Put plainly: PKC binding affinity, competitive radioligand assay against 3H-PDBu. The procedure:
(§2) Testing of Compounds for PKC Binding Affinity: A heterogeneous competitive radioligand assay against ^3H-phorbol-12,13-dibutyrate (^3H-PDBu) was used to generate PKC binding constant (Ki) values. In a typical assay, a specific full-length PKC isoform was combined with Tris-HCl, KCl, CaCl2, bovine serum albumin, water, and phosphatidyl serine. Serial dilutions of the respective analog were added to the PKC mixture; in addition, a solution of a compound with known PKC binding affinity and a solution containing no sample were added for reference.
(§3) After addition of [^3H]PDBu, these samples were incubated, filtered through filters previously wetted with polyethyleneimine and the filters were washed with Tris buffer. The filters were then placed into scintillation vials which were then filled with Bio-Safe scintillation fluid and were measured for radioactivity using a Beckman LS 6000SC scintillation counter. Counts per minute (cpm) were averaged for each triplicate dilution. The data was then plotted (cpm vs. log(concentration)) using Prism® by GraphPad Software and an IC50 was determined using that program's built-in one-site competition least squares regression function. Ki values were calculated by the equation: Ki=IC50/(1+[^3H-PDBu])/KD of ^3H-PDBu).

Data set [5] deals with T2, Conventional PKCβI (Homo sapiens, UniProt P05771).
T2 construct: a specific full-length PKC isoform was combined with Tris-HCl, KCl, CaCl2
T2 sequence (P05771 whole entry, canonical isoform): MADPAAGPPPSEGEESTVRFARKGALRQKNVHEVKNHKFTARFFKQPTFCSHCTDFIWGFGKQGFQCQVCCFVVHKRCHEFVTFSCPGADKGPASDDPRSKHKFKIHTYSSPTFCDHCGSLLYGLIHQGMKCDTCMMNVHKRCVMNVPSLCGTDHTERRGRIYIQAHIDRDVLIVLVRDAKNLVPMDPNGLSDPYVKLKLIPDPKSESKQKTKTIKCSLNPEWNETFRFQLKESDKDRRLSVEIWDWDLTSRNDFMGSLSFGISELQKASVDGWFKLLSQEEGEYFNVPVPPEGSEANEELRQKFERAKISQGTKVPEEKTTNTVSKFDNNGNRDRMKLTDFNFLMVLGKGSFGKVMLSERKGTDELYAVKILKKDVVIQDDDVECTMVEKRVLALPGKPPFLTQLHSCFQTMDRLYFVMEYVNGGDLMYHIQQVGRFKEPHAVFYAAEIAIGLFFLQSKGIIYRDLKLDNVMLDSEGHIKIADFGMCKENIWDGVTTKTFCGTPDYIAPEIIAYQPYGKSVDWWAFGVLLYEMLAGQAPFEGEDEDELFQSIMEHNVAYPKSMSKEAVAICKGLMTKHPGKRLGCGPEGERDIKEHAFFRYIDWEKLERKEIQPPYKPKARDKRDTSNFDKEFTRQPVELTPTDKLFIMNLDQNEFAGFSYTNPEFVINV
The data set is described as above. Here is the method:
as §2, §3

The test system of data set [6] is T-lymphoblastoid CEM-SS and C-8166 cells. As to conditions: CEM-SS and C-8166 cell lines; cited from earlier work.
The target in data set [7] is T3, PKC.
T3 construct: rows headed: KD of 3H-PDBu
Put plainly: Saturation binding of 3H-PDBu. The following applies: batch-to-batch variability.

[8] abbreviates: intravenous retro-orbital injection.
Where [9] appears, read: vs 3H-PDBu, read-out: PKC binding affinity, Ki, Novel PKCδ.

T1 sequence (Q05655 whole entry, canonical isoform): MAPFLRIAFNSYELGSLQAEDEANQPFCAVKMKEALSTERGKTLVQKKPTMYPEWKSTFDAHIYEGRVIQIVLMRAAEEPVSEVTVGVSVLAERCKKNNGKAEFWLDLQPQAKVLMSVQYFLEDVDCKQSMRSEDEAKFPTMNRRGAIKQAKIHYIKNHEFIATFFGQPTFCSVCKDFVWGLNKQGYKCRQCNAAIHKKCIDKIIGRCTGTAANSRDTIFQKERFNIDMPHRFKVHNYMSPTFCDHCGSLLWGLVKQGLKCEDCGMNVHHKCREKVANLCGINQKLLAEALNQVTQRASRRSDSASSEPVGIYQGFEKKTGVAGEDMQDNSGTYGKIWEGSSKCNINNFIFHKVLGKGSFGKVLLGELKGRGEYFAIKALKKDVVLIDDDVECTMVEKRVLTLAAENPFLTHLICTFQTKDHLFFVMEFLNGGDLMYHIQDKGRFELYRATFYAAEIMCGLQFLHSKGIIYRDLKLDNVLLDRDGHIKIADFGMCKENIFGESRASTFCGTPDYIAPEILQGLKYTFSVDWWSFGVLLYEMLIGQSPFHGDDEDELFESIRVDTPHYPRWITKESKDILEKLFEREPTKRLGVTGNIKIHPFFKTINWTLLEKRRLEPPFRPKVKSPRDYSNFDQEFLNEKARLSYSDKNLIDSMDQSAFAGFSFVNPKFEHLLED

On to `CC1=C[C@H]2[C@@]3(O)[C@H](C)C[C@]4(OC(=O)CC56CC7CC(CC(C7)C5)C6)[C@H]([C@@H]3C=C(CO)C[C@]2(O)C1=O)C4(C)C` [Compound 3, adamantyl prostratin], for which the survival of mice result in data set [1] (setting [8]) was “one mouse casualty at 60 pg and no survival beyond that dose”. Besides, the “potency compared with prostratin” value in data set [1] (intravenous retro-orbital injection, 24 h) is reported as “higher potency than prostratin”.

For `CC(=O)OCC1=C[C@H]2[C@@H]3C(C)(C)[C@]3(OC(=O)CC34CC5CC(CC(C5)C3)C4)C[C@@H](C)[C@]2(O)[C@@H]2C=C(C)C(=O)[C@@]2(O)C1` [Compound 4a], in data set [2], the half-life at 400 μM is above 7 days. In data set [1], the “CD69 expression versus parent compound” value is “more moderate levels of activation”, the “stimulation of CD69 in splenocytes” value was “strong stimulation of CD69 in splenocytes” and the bolus toxicity entry is “no bolus toxicity on mice even at the highest dosage”. Further, the survival of mice entry in data set [1] (setting [8]) is on record as “survived”. Further, the half-life at 400 μM in data set [3] was 1620 ± 180 min. In data set [4], this compound displayed a Ki of 9400 nM.

`CCCCCC(=O)OCC1=C[C@H]2[C@@H]3C(C)(C)[C@]3(OC(=O)CC34CC5CC(CC(C5)C3)C4)C[C@@H](C)[C@]2(O)[C@@H]2C=C(C)C(=O)[C@@]2(O)C1` [Compound 4b]: the results for the half-life at 400 μM in data set [2] and in data set [3] were above 74 days and 144 ± 30 min, respectively. Also, the Ki in data set [5] and in data set [4] was above 2500 nM each time.

For the compound `CCCCCCCCCC(=O)OCC1=C[C@H]2[C@@H]3C(C)(C)[C@]3(OC(=O)CC34CC5CC(CC(C5)C3)C4)C[C@@H](C)[C@]2(O)[C@@H]2C=C(C)C(=O)[C@@]2(O)C1` [Compound 4c], the half-life at 400 μM in data set [2] is above 7 days. Moreover, in data set [1], the “CD69 expression versus parent compound” value is “comparable”, the “stimulation of CD69 in splenocytes” value is given as “strong stimulation of CD69 in splenocytes” and the bolus toxicity result was “no bolus toxicity on mice even at the highest dosage”. Also, the survival of mice entry in data set [1] (setting [8]) is given as “survived”. For the same compound, the half-life at 400 μM in data set [3] was 1140 ± 120 min. In data set [4], this compound gave a Ki of 9000 nM.

Take `CC1=C[C@H]2[C@@]3(O)[C@H](C)C[C@]4(OC(=O)CC56CC7CC(CC(C7)C5)C6)[C@H]([C@@H]3C=C(COC(=O)c3ccccc3)C[C@]2(O)C1=O)C4(C)C` [Compound 4d]: the values for the half-life at 400 μM in data set [2] and in data set [3] were above 7 days and 1920 ± 540 min, respectively. The results for the Ki in data set [5] and in data set [4] were above 500 nM and above 2500 nM, respectively.

For the compound `CCOC(=O)OCC1=C[C@H]2[C@@H]3C(C)(C)[C@]3(OC(=O)CC34CC5CC(CC(C5)C3)C4)C[C@@H](C)[C@]2(O)[C@@H]2C=C(C)C(=O)[C@@]2(O)C1` [Compound 4e], the half-life at 400 μM in data set [2] is above 7 days; in data set [3], 288 ± 36 min. This compound had an inhibition constant (Ki) in data set [4] of 380 nM.

As for `CCCCCCCCNC(=O)OCC1=C[C@H]2[C@@H]3C(C)(C)[C@]3(OC(=O)CC34CC5CC(CC(C5)C3)C4)C[C@@H](C)[C@]2(O)[C@@H]2C=C(C)C(=O)[C@@]2(O)C1` [Compound 4f], the half-life at 400 μM in data set [2] was above 7 days; in data set [3], 4260 ± 780 min. In data set [4], this compound gave an inhibition constant Ki of 2900 nM.

For the compound `CC1=C[C@]23C(=O)[C@@H](C=C(CO)[C@@H](O)[C@]2(O)[C@H]1OC(=O)c1ccc(Br)cc1C)[C@H]1[C@@H](C[C@H]3C)C1(C)C` [Compound 6, o-methyl-p-bromo-benzoate ingenol ester], the values for the half-life in data set [2] and in data set [3] were 1080 min and 60 min, respectively. Moreover, the Ki in data set [5] (vs 3H-PDBu, read-out: PKC binding affinity, Ki, Conventional PKCβI) was 0.85 nM; in data set [4] (setting [9]) it was 1.1 nM.

Regarding `CCCCCCCCCC(=O)OCC1=C[C@@H]2C(=O)[C@]3(C=C(C)[C@H](OC(=O)c4ccc(Br)cc4C)[C@@]3(O)[C@@H]1O)[C@H](C)C[C@@H]1[C@H]2C1(C)C` [Compound 7], the half-life in data set [2] and in data set [3] was 120 min throughout. The Ki in data set [4] (setting [9]) amounted to 11000 nM.

For the compound `CC(=O)O[C@@]12C[C@@H](C)[C@@]3(O)[C@@H](C=C(CO)C[C@]4(O)C(=O)C(C)=C[C@@H]34)[C@@H]1C2(C)C` [prostratin], in data set [6], the “concentration restoring cell viability to the level of uninfected controls” value is recorded as “approximately 1 μM” and the “no sign of cytotoxicity up to” value is recorded as “about 25 μM”.

As to ^3H-phorbol-12,13-dibutyrate [^3H-PDBu], the Kd in data set [7] lay in the range of 1.55 to 4.4 nM.
